Results taken from ChEMBL document CHEMBL4190316, “Synthesis and biological evaluation of 4-biphenylamino-5-halo-2(5H)-furanones as potential anticancer agents” (Eur J Med Chem, 2017).

What was measured:
[1] = test system: C6; assay: Cytotoxicity against rat C6 cells assessed as reduction in cell viability after 72 hrs by MTT assay; format: functional, cell-based; details: C6, 72 h
[2] = test system: HaCaT; assay: Cytotoxicity against human HaCaT cells assessed as reduction in cell viability after 72 hrs by MTT assay; format: cell-based
[3] = test system: CNE; assay: Cytotoxicity against human CNE1 cells assessed as reduction in cell viability after 72 hrs by MTT assay; format: functional, cell-based
[4] = Cytotoxicity against human NCI-EC1 cells assessed as reduction in cell viability after 72 hrs by MTT assay; format: functional, cell-based
[5] = test system: MDA-MB-231; assay: Cytotoxicity against human MDA-MB-231 cells assessed as reduction in cell viability after 72 hrs by MTT assay; format: functional, cell-based; details: MDA-MB-231, 72 h
[6] = test system: MCF7; assay: Cytotoxicity against human MCF7 cells assessed as reduction in cell viability after 72 hrs by MTT assay; format: functional, cell-based; details: MCF7, 72 h
[7] = test system: HepG2; assay: Cytotoxicity against human HepG2 cells assessed as reduction in cell viability after 72 hrs by MTT assay; format: functional, cell-based; details: HepG2, 72 h
[8] = Octanol-water partition coefficient, log P of the compound at 10 mM after 24 hrs by UV-vis spectroscopic method; format: physicochemical

logP at 24 h, 10000 µM [8]	SMILES	IC50 [1]	IC50 [2]	IC50 [3]	IC50 [4]	IC50 [5]	IC50 [6]	IC50 [7]
1.74	CCOC1OC(=O)C(Br)=C1Nc1ccc(-c2ccccc2)cc1 (stereo not given)	27.4 µM	50.8 µM	41.8 µM	55 µM	70.4 µM	46.6 µM	34.9 µM
0.913	COC1OC(=O)C(Cl)=C1Nc1ccc(-c2ccc(N)cc2)cc1 (stereo not given)	64.8 µM	> 100 µM	> 100 µM	> 100 µM	> 100 µM	> 100 µM	> 100 µM
1.33	COC1OC(=O)C(Br)=C1Nc1ccc(-c2ccccc2)cc1 (stereo not given)	37.9 µM	67.5 µM	52.6 µM	48 µM	97.5 µM	37.8 µM	45.2 µM
1.33	CCOC1OC(=O)C(Cl)=C1Nc1ccc(-c2ccccc2)cc1 (stereo not given)	47.9 µM	49.8 µM	47 µM	56 µM	38.5 µM	44.6 µM	40.1 µM
1.58	CCOC1OC(=O)C(Br)=C1Nc1ccc(-c2ccc(N)cc2)cc1 (stereo not given)	56.9 µM	70.8 µM	90.1 µM	82.8 µM	48.6 µM	58.1 µM	55.8 µM
